The values below come from article PMC7824787, “Design, Synthesis and In Vitro Investigation of Novel Basic Celastrol Carboxamides as Bio-Inspired Leishmanicidal Agents Endowed with Inhibitory Activity against Leishmania Hsp90” (Biomolecules, 2021).

One data set deals with LbHsp90 (Leishmania braziliensis, UniProt A4HL70). The experiment in a line: In vitro inhibition of the ATPase activity of LbHsp90 (Malachite Green Phosphate Assay). It is filed as biochemical. To be noted: 7 μM LbHsp90, 27 °C, 60 min. An excerpt:
To evaluate in vitro the modulatory activity of CE, PR and CE caboxamides, a full-length recombinant Hsp90 from L. braziliensis (LbHsp90) was produced in E. coli BL21 DE3 harboring the pET28a_LbHsp90 coding for the C-terminal His-tagged target chaperone (genbank number: XP_001567804.1, full sequence is reported in Appendix B). Pratically, the plasmid pET28a_LbHsp90, kindly donated by professor J.C. Borges, was transformed in E. coli BL21 DE3 using the TransformAid Bacterial Transformation Kit (Thermo Fisher, Waltham, MA, USA). Subsequently, the obtained transformants were grown overnight in LB medium containing 30 μg mL^−1 kanamycin (LBkan30) and then inoculated in 1 L SB kan30 medium (Yeast extract 30 g L^−1, Tryptone 20 g L^−1, NaCl 10 g L^−1) at 37 °C and 220 rpm. When the OD600 reached 0.5–1, gene expression was induced by the addition of 2 mL of 1 M IPTG solution in water and the culture was shifted at 30 °C for 24 h. After cell harvesting by centrifugation (5000 rpm for 30 min), the cell pellet was resuspended in 20 mL of wash buffer (20 mM HEPES buffer, pH 7.0, 500 mM NaCl, 20 mM imidazole) and recombinant E. coli BL21DE3 cells were disrupted by ultrasonication. LbHsp90 was subsequently purified using a Nickel Sepharose 6 Fast Flow agarose resin (Ni-NTA) (GE Healthcare, Milan, Italy) as follows. Soluble protein fraction was separated from cell debris by centrifugation (10,000 rpm for 30min) after cell ultrasonication, and clear lysates were incubated with the Ni-NTA resin for 90 min at 4 °C under mild shaking and loaded onto a glass column (10 × 110 mm). The resin was then washed with 10mL of wash buffer and His-tagged LbHsp90 was eluted using a 3 step gradient (10 mL washing buffer containing 100, 200, and 300 mM imidazole, respectively) and dialyzed against 20 mM HEPES buffer (20 mM, pH 7.5), at 4 °C overnight. The protein content was measured using the Bio-Rad Protein Assay (Hercules, CA, USA) according to the Bradford method and the protein purity was verified by SDS-PAGE analysis (10% T, 2.6% C). It is worth noting that to avoid interferences with the assays described below, proteins were purified and conserved in HEPES buffer (20 mM, pH 7.5) in place of the standard PB-buffer. Reported data are the mean of two experiments run in duplicate.
Modulatory activity toward the ATPase cycle of LbHsp90 was determined using a Malachite Green Phosphate Assay Kit (Catalog Number MAK307, Sigma-Aldrich®, St. Louis, MO, USA). Analyses were run in a 96-well plate directly following the quantitative formation of a green complex between Malachite Green, molybdate, and free orthophosphate (Pi) produced by ATP hydrolysis catalyzed by the chaperone. Color formation from the reaction was measured on a plate reader at 620 nm. Briefly, the IC50 of CE and its derivatives were extrapolated from a set of dose-response curves obtained by calculating the amount of Pi produced by LbHsp90 in the presence of different compounds concentrations.
Reactions were run in HEPES buffer (20 mM, pH 7.5) containing 3 mM MgCl2 and 50 mM KCl in the presence of different compounds concentrations ([…]), LbHsp90 (7 μM) and ATP (25 mM) at 27 °C for 60 min. OD620 was measured 30 min after Malachite Green reactants addition.
LbHsp90 native activity was measured by conducting the reaction in the presence of just LbHsp90 and ATP and extrapolating the concentration of Pi obtained.
Three sets of control experiments, (1) ATP background hydrolysis, (2) compounds-related interferences and (3) protein-related background coloration, were run as follow: • (1) ATP (25 mM) incubated at 27 °C for 60 min • (2) Compounds (different concentrations) incubated with ATP (25 mM) at 27 °C for 60 min • (3) LbHsp90 (7 μM) at 27 °C for 60 min
The in vitro performances of CE, PR and the carboxamides 1–11 (Figure 4) as potential inhibitors of the Leishmania braziliensis Hsp90 were investigated using Sigma-Aldrich® Malachite Green Phosphate Assay Kit. […]

The subject of a further data set is THP-1. The experiment in a line: Cytotoxicity on THP-1 (MTT). To be noted: Homo sapiens, THP-1; PMA-differentiated, 72 h, MTT; read-out: Healthy Cell Lines IC50, THP-1. It is filed as cell-based, human. The protocol: Cytotoxicity was evaluated on human microvascular endothelial cells (HMEC-1, provided by the Centers for Disease Control, Atlanta, GA, USA), on immortalized mouse C57Bl/6 bone marrow derived macrophages (BMDM) from wild type lineage (generated in the laboratories of Drs. Douglas Golenbock and Kate Fitzgerald, University of Massachusetts, Worcester, MA, USA) and on a human acute monocytic leukaemia cell line (THP-1).
HMEC-1 were maintained in MCDB 131 medium (Invitrogen, Milan, Italy) supplemented with 10% fetal calf serum (HyClone), 10 ng/mL of epidermal growth factor, 1 μg/mL of hydrocortisone, 2 mM glutamine and 20 mM HEPES buffer, at 37 °C in 5% CO2. BMDM were maintained in DMEM (Euroclone) medium supplemented with 10% fetal bovine serum (HyClone, Celbio, Milan, Italy), 2 mM glutamine, and 25 mM of HEPES buffer solution (Euroclone). THP-1 were maintained in RPMI supplemented with 10% heat-inactivated FCS, 50 µM 2-mercaptoethanol, 10 µM sodium pyruvate, 20 mM HEPES, and 2 mM glutamine. In order to achieve differentiation into macrophages, cells were treated with 10 ng/mL phorbol myristate acetate (PMA) for 72 h.
For the cytotoxicity assay, cells were seeded in 96 well flat bottom tissue culture clusters (Costar, New York, NY, USA) at the following concentrations: HMEC 10^5 cell/mL, BMDM at 10^6 cell/mL, THP1 at 5 × 10^5 cell/mL. After 24 h, cells were treated with serial dilutions of test compounds in a final volume of 200 µL/well. Cell proliferation was evaluated after 72 h using the MTT assay.
The absorbances were measured with a microplate spectrophotometer (Synergy 4-Biotek) at a test wavelength of 550 nm and a reference wavelength of 650 nm. The results are expressed as IC50 as the concentration inhibiting 50% of cell growth. Each IC50 value is the mean and standard deviation of at least three separate experiments performed in duplicate.

A further data set concerns L. infantum amastigotes. The experiment in a line: Antileishmanial activity on intramacrophage amastigotes of L. infantum. It is filed as cell-based, Leishmania infantum. The settings on record: Leishmania infantum; infected THP-1 macrophages, 72 h. Here is the method:
Cell monolayers were then washed and incubated in the presence of test compounds for 72 h. Slides were fixed with methanol and stained with Giemsa. The percentage of infected macrophages in treated and non-treated cells was determined by light microscopy.

LbHsp90, sequence (A4HL70 entry or part of it): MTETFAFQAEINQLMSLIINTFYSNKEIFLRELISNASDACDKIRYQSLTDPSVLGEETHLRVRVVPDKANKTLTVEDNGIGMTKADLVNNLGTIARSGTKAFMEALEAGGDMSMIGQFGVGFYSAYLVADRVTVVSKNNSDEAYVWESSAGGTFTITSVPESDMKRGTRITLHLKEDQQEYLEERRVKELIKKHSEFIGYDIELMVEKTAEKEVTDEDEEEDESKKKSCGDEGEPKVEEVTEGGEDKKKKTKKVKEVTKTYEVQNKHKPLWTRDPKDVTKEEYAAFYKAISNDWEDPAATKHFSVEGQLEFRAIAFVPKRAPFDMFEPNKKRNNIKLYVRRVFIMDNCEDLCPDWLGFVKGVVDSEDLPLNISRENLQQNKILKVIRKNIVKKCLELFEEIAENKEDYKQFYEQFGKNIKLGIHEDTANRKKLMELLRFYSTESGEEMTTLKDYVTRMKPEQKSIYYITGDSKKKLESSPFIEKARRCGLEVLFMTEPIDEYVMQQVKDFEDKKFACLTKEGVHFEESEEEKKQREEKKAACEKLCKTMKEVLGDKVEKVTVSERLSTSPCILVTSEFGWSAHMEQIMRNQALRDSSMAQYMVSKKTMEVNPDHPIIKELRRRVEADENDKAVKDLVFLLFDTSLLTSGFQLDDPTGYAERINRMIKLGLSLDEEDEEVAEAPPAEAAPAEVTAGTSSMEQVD

As for `CC1=C(O)C(=O)C=C2C1=CC=C1[C@@]2(C)CC[C@@]2(C)[C@@H]3C[C@](C)(C(=O)O)CC[C@]3(C)CC[C@]12C` [CE, celastrol], the IC50 at LbHsp90 is 201 ± 10 µM; with THP-1 it was 900 ± 300 nM.
`CC1=C(O)C(=O)C=C2C1=CC=C1[C@@]2(C)CC[C@@]2(C)[C@@H]3C[C@](C)(C(=O)NCCN4CCCCC4)CC[C@]3(C)CC[C@]12C` [compound 1, (2R,4aS,6aS,12bR,14aS,14bR)-10-hydroxy-2,4a,6a,9,12b,14a-hexamethyl-11-oxo-N-(2-(piperidin-1-yl)ethyl)-1,2,3,4,4a,5,6,6a,11,12b,13,14,14a,14b-tetradecahydropicene-2-carboxamide] showed a melting point of 137 to 138.6 °C. At LbHsp90, the IC50 was found to be 83 ± 2 µM. The IC50 with THP-1 came out at 2080 ± 240 nM. Half-maximal inhibition with L. infantum amastigotes (IC50) required 190 ± 110 nM.
The compound `CC1=C(O)C(=O)C=C2C1=CC=C1[C@@]2(C)CC[C@@]2(C)[C@@H]3C[C@](C)(C(=O)NCCN4CCCC4)CC[C@]3(C)CC[C@]12C` [compound 3, (2R,4aS,6aS,12bR,14aS,14bR)-10-hydroxy-2,4a,6a,9,12b,14a-hexamethyl-11-oxo-N-(2-(pyrrolidin-1-yl)ethyl)-1,2,3,4,4a,5,6,6a,11,12b,13,14,14a,14b-tetradecahydropicene-2-carboxamide] returned a melting point of 135.6 to 138 °C. Moreover, half-maximal inhibition against LbHsp90 (IC50) required 81 ± 1 µM. Also, the IC50 in the data set on THP-1 stood at 2790 ± 440 nM. In the data set on L. infantum amastigotes, the IC50 is 130 ± 90 nM.
Regarding `CC1=C(O)C(=O)C=C2C1=CC=C1[C@@]2(C)CC[C@@]2(C)[C@@H]3C[C@](C)(C(=O)NCC45CCCN4CCC5)CC[C@]3(C)CC[C@]12C` [compound 5, (2R,4aS,6aS,12bR,14aS,14bR)-N-((hexahydro-1H-pyrrolizin-7a-yl)methyl)-10-hydroxy-2,4a,6a,9,12b,14a-hexamethyl-11-oxo-1,2,3,4,4a,5,6,6a,11,12b,13,14,14a,14b-tetradecahydropicene-2-carboxamide], the melting point fell in the range of 250.8 to 254.7 °C. In addition, the concentration for half-maximal inhibition (IC50) at LbHsp90 stood at 20 ± 2 µM. In addition, the IC50 in the data set with THP-1 was determined as 1880 ± 340 nM. Further, the IC50 in the data set on L. infantum amastigotes is 520 ± 280 nM.
On to `CC1=C(O)C(=O)C=C2C1=CC=C1[C@@]2(C)CC[C@@]2(C)[C@@H]3C[C@](C)(C(=O)NCCNc4ccnc5cc(Cl)ccc45)CC[C@]3(C)CC[C@]12C` [compound 6, (2R,4aS,6aS,12bR,14aS,14bR)-N-(2-((7-chloroquinolin-4-yl)amino)ethyl)-10-hydroxy-2,4a,6a,9,12b,14a-hexamethyl-11-oxo-1,2,3,4,4a,5,6,6a,11,12b,13,14,14a,14b-tetradecahydropicene-2-carboxamide], for which the melting point is 165.7 to 167.9 °C. At LbHsp90, this compound returned an IC50 of 65 ± 4 µM. Moreover, the IC50 with THP-1 worked out at 850 ± 240 nM. In the data set with L. infantum amastigotes, the IC50 turned out to be 660 ± 60 nM.
As to `CC1=C(O)C(=O)C=C2C1=CC=C1[C@@]2(C)CC[C@@]2(C)[C@@H]3C[C@](C)(C(=O)NCCSS(C)(=O)=O)CC[C@]3(C)CC[C@]12C` [compound 9, S-(2-((2R,4aS,6aS,12bR,14aS,14bR)-10-hydroxy-2,4a,6a,9,12b,14a-hexamethyl-11-oxo-1,2,3,4,4a,5,6,6a,11,12b,13,14,14a,14b-tetradecahydropicene-2-carboxamido)ethyl) methanesulfonothioate], the IC50 against LbHsp90 was above 150 µM; in the data set on THP-1, 3280 ± 900 nM.
